In patent publication US10028992B2, “Methods of treating muscular dystrophy” (BOARD OF REGENTS OF THE NEVADA SYSTEM OF HIGHER EDUCATION …, priority 2012, dated 2018):
Where two headings read alike, the source gives them in different places.

Tested on: α7 integrin promoter
Experiment: muscle cell-based assay: α7βgal+/− myoblasts/myotubes, LacZ reporter, β-galactosidase cleavage of FDG
Parameters: species or system mouse
Summary of the method: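 Primary α7βgal+/− mouse myoblasts (LacZ knocked into α7 integrin exon 1, promoter retained), differentiated; promoter activity read as β-galactosidase conversion of non-fluorescent FDG to fluorescein. Hits followed by dose-response, western analysis and myostatin counterscreen.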

SMILES	Results in a α7+/− β-galactosidase assay, Myotubes, 0.5 uM (Myotubes, compound at 0.5 uM)	Results in a α7+/− β-galactosidase assay, Myotubes, 1 uM (Myotubes, compound at 1 uM)	Results in a α7+/− β-galactosidase assay, Myotubes, 5 uM (Myotubes, compound at 5 uM)	Results in a α7+/− β-galactosidase assay, Myotubes, 10 uM (Myotubes, compound at 10 uM)	Results in a α7+/− β-galactosidase assay, Myotubes, 20 uM (Myotubes, compound at 20 uM)	Results in a α7+/− β-galactosidase assay, Myotubes, 40 uM (Myotubes, compound at 40 uM)	Results in a α7+/− β-galactosidase assay, Myotubes, 0.5 uM	Results in a α7+/− β-galactosidase assay, Myotubes, 1 uM	Results in a α7+/− β-galactosidase assay, Myotubes, 5 uM	Results in a α7+/− β-galactosidase assay, Myotubes, 10 uM	Results in a α7+/− β-galactosidase assay, Myotubes, 20 uM	Results in a α7+/− β-galactosidase assay, Myotubes, 40 uM
CC1(C)Cc2ccccc2-c2nc3n(c(=O)c21)CCS3 [drawing 380]	0.09354	0.08602	−0.04079	−0.05719	−0.329	−0.421	–	–	–	–	–	–
CN(/C(=N/S(=O)(=O)c1cccs1)c1ccccc1)c1ccccc1 [drawing 381]	−0.07971	0.1809	0.01531	−0.02849	0.1022	−0.209	–	–	–	–	–	–
CSc1ccc(S(=O)(=O)NCc2ccccc2)cc1 [drawing 382]	−0.1565	−0.2515	0.02007	0.1738	−0.1735	−0.07044	–	–	–	–	–	–
O=C1Nc2ccccc2/C1=C/c1ccccc1F [drawing 383]	−0.06236	−0.04077	−0.1089	0.02646	−0.3381	−0.4226	–	–	–	–	–	–
CN1C(=O)/C(=C(/C#N)c2nc3ccccc3[nH]2)c2ccccc21 [drawing 384]	−0.07617	−0.02413	−0.1571	0.1257	−0.2111	−0.2699	–	–	–	–	–	–
CC1CC(C)(C)N=C(S)N1CC(=O)N(C)Cc1ccccc1 (stereo not drawn) [drawing 385]	0.02464	−0.02121	−0.03109	0.2144	−0.02703	0.0594	–	–	–	–	–	–
Cc1noc(C)c1COc1ccc(C(=O)NCCc2ccccn2)cc1 [drawing 386]	0.08027	0.1153	−0.04323	0.2279	−0.2443	−0.1582	–	–	–	–	–	–
COCCSc1ccccc1C(=O)Nc1cc(C)cc(C)c1 [drawing 387]	−0.1267	0.09331	−0.1086	0.1203	−0.2283	−0.2601	–	–	–	–	–	–
CC(=O)Nc1ccc(NC(=O)c2cc(=O)c3cc(C)cc(C)c3o2)cc1 [drawing 388]	−0.05012	−0.03106	−0.1165	0.3265	−0.3385	−0.2657	–	–	–	–	–	–
COc1ccc(-c2c[nH]nc2-c2ccc(OC)cc2)cc1 [drawing 389]	–	–	–	–	–	–	−0.01143	0.1883	0.3888	0.8585	0.03803	−0.2518
